Measurements published in patent US20230075856A1, “CYCLIC SULFAMIDE COMPOUNDS FOR TREATMENT OF HBV” (Assembly Biosciences, Inc., priority 2018, published 2023).

Tested on: HBV viral load production from HepAD38 cells
Test: Viral production from HepAD38 cells: viral load in supernatant by qPCR of the HBV core sequence
Type: cell-based
Conditions: 5 days incubation, qPCR of supernatant HBV DNA vs DMSO control, read-out: viral load lowering EC50 (Activity)
Procedure, shortened: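 Viral load was measured by qPCR of the HBV core region in supernatant, quantified against DNA standards and compared with DMSO wells. Cells (50,000/well, tetracycline withdrawn, 2% FBS) received compound from 10 μM final for 5 days; EC50 from four-parameter nonlinear regression.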

Row | SMILES | EC50
1 | CCN1C(C(=O)Nc2ccc(F)c(Cl)c2)CC(C(=O)NC2CCN(C(=O)OC)CC2)NS1(=O)=O (single isomer, unassigned) [Compound 890-ISOMER-B, methyl 4-[[5-[(3-chloro-4-fluoro-phenyl)carbamoyl]-6-ethyl-1,1-dioxo-1,2,6-thiadiazinane-3-carbonyl]amino]piperidine-1-carboxylate] | 0.1 to 10 µM
2 | Cc1nc(-c2ccccc2Cl)sc1CNC(=O)C1CC(C(=O)Nc2ccc(F)c(Cl)c2)N(C)S(=O)(=O)N1 (single isomer, unassigned) [1015-ISOMER-B, N3-(3-Chloro-4-fluoro-phenyl)-N5-[[2-(2-chlorophenyl)-4-methyl-thiazol-5-yl]methyl]-2-methyl-1,1-dioxo-1,2,6-thiadiazinane-3,5-dicarboxamide] | 0.05 to 0.1 µM
3 | CN1C(C(=O)Nc2ccc(F)c(Cl)c2)CC(C(=O)NC2CCN(C(=O)C3CC3)CC2)NS1(=O)=O (single isomer, unassigned) [Compound 854-ISOMER-B, N3-(3-chloro-4-fluoro-phenyl)-N5-[1-(cyclopropanecarbonyl)-4-piperidyl]-2-methyl-1,1-dioxo-1,2,6-thiadiazinane-3,5-dicarboxamide] | 0.1 to 10 µM
4 | CN1C(C(=O)Nc2ccc(F)c(Cl)c2)CC(C(=O)NCc2cnc(Cl)s2)NS1(=O)=O (single isomer, unassigned) [1199-ISOMER-B, N3-(3-chloro-4-fluoro-phenyl)-N5-[(2-chlorothiazol-5-yl)methyl]-2-methyl-1,1-dioxo-1,2,6-thiadiazinane-3,5-dicarboxamide] | 0.1 to 10 µM
5 | CN1C(C(=O)Nc2ccc(F)c(Cl)c2)CC(C(=O)NCc2cnc(-c3ccccc3)s2)NS1(=O)=O (single isomer, unassigned) [Compound 691-ISOMER-B, N3-(3-chloro-4-fluoro-phenyl)-2-methyl-1,1-dioxo-N5-[(2-phenylthiazol-5-yl)methyl]-1,2,6-thiadiazinane-3,5-dicarboxamide] | < 0.05 µM
6 | CN1C(C(=O)Nc2ccc(F)c(Cl)c2)CC(C(=O)NCc2cc(-c3ccc(F)cc3)n(C)n2)NS1(=O)=O (single isomer, unassigned) [1151-ISOMER-B, N3-(3-chloro-4-fluoro-phenyl)-N5-[[5-(4-fluorophenyl)-1-methyl-pyrazol-3-yl]methyl]-2-methyl-1,1-dioxo-1,2,6-thiadiazinane-3,5-dicarboxamide] | 0.1 to 10 µM
7 | CN1C(C(=O)Nc2ccc(F)c(Cl)c2)CC(C(=O)NC2CCN(c3ccccn3)CC2)NS1(=O)=O (single isomer, unassigned) [Compound 769-ISOMER-B, N3-(3-chloro-4-fluoro-phenyl)-2-methyl-1,1-dioxo-N5-[1-(2-pyridyl)-4-piperidyl]-1,2,6-thiadiazinane-3,5-dicarboxamide] | 0.1 to 10 µM
8 | Cc1cnc(CNC(=O)C2CC(C(=O)Nc3ccc(F)c(Cl)c3)N(C)S(=O)(=O)N2)s1 (single isomer, unassigned) [Compound 687-ISOMER-B, N3-(3-chloro-4-fluoro-phenyl)-2-methyl-N5-[(5-methylthiazol-2-yl)methyl]-1,1-dioxo-1,2,6-thiadiazinane-3,5-dicarboxamide] | < 0.05 µM
9 | C[C@@H](NC(=O)C1CC(C(=O)Nc2ccc(F)c(Cl)c2)N(C)S(=O)(=O)N1)c1ccc(F)cc1 (single isomer, unassigned; isomer-a) [493-R-ISOMER-A] | < 0.05 µM
10 | Cc1csc(CNC(=O)C2CC(C(=O)Nc3ccc(F)c(Cl)c3)N(C)S(=O)(=O)N2)n1 (single isomer, unassigned) [Compound 686-ISOMER-B, N3-(3-chloro-4-fluoro-phenyl)-2-methyl-N5-[(4-methylthiazol-2-yl)methyl]-1,1-dioxo-1,2,6-thiadiazinane-3,5-dicarboxamide] | < 0.05 µM

Same assay, conditions: Hepatitis B virus, HePAD38, 120 h, 5 days incubation, qPCR of supernatant HBV DNA vs DMSO control, read-out: viral load lowering EC50 (Activity)

Row | SMILES | EC50
11 | CN1C(C(=O)Nc2ccc(F)c(Cl)c2)CC(C(=O)Nc2cccnc2)NS1(=O)=O (stereo not drawn) [Compound 708] | 0.1 to 10 µM
12 | C[C@@H](NC(=O)C1CC(C(=O)Nc2ccc(F)c(C#N)c2)N(C)S(=O)(=O)N1)c1ccccc1 (stereo partly drawn) [Compound 834] | 0.1 to 10 µM
13 | CN1C(C(=O)Nc2ccc(F)c(Cl)c2)CC(C(=O)NCc2cnc(-c3ccc(OCCCN4CCCCC4)cc3)s2)NS1(=O)=O (stereo not drawn) [Compound 942] | 0.05 to 0.1 µM
14 | CN1C(C(=O)Nc2ccc(F)c(Cl)c2)CC(C(=O)NCc2nn(-c3ccccc3Cl)c3ccccc23)NS1(=O)=O (stereo not drawn) [Compound 1073] | < 0.05 µM
15 | CN1C(C(=O)Nc2ccc(F)c(Cl)c2)CC(C(=O)NCc2nccs2)NS1(=O)=O (stereo not drawn) [Compound 684] | 0.1 to 10 µM
16 | Cc1nc(-c2ccccc2)sc1CNC(=O)C1CC(C(=O)Nc2ccc(F)c(C#N)c2)N(C)S(=O)(=O)N1 (stereo not drawn) [Compound 1136] | < 0.05 µM
17 | CC(NC(=O)C1CC(C(=O)Nc2ccc(F)c(Cl)c2)N(C)S(=O)(=O)N1)c1cnc(-c2ccccc2Cl)s1 (stereo not drawn) [Compound 1019] | < 0.05 µM
18 | COc1ccc(CNC(=O)C2CC(C(=O)Nc3ccc(F)c(C#N)c3)N(C)S(=O)(=O)N2)cc1 (stereo not drawn) [Compound 832] | 0.05 to 0.1 µM
19 | CN1C(C(=O)Nc2ccc(F)c(Cl)c2)CC(C(=O)NC2CCN(c3ccnc(-c4ccccc4)c3)CC2)NS1(=O)=O (stereo not drawn) [Compound 1050] | < 0.05 µM
20 | Cc1nc(-c2ccccn2)sc1CNC(=O)C1CC(C(=O)Nc2ccc(F)c(Cl)c2)N(C)S(=O)(=O)N1 (stereo not drawn) [Compound 1065] | < 0.05 µM
21 | Cc1nc(Cl)sc1CNC(=O)C1CC(C(=O)Nc2ccc(F)c(Cl)c2)N(C)S(=O)(=O)N1 (stereo not drawn) [Compound 1031] | < 0.05 µM
22 | CC(C)OC1CCC(NC(=O)C2CC(C(=O)Nc3ccc(F)c(Cl)c3)N(C)S(=O)(=O)N2)CC1 (stereo not drawn) [Compound 862] | < 0.05 µM
23 | Cc1cn(-c2ccc(F)cc2)nc1CNC(=O)C1CC(C(=O)Nc2ccc(F)c(Cl)c2)N(C)S(=O)(=O)N1 (single isomer, unassigned) [1141-ISOMER-A, N3-(3-chloro-4-fluoro-phenyl)-N5-[[1-(4-fluorophenyl)-4-methyl-pyrazol-3-yl]methyl]-2-methyl-1,1-dioxo-1,2,6-thiadiazinane-3,5-dicarboxamide] | < 0.05 µM
24 | CN1C(C(=O)Nc2ccc(F)c(Cl)c2)CC(C(=O)NC2CCOC2)NS1(=O)=O (stereo not drawn) [Compound 706] | 0.1 to 10 µM
25 | CN1C(C(=O)Nc2ccc(F)c(Cl)c2)CC(C(=O)NCc2cnc(-c3ccc(OCCN4CCCCC4)cc3)s2)NS1(=O)=O (stereo not drawn) [Compound 922] | < 0.05 µM
26 | COCCN1C(C(=O)Nc2ccc(F)c(Cl)c2)CC(C(=O)NC2CCN(C(=O)OC)CC2)NS1(=O)=O (single isomer, unassigned) [Compound 896-ISOMER-A, methyl 4-[[5-[(3-chloro-4-fluoro-phenyl)carbamoyl]-6-(2-methoxyethyl)-1,1-dioxo-1,2,6-thiadiazinane-3-carbonyl]amino]piperidine-1-carboxylate] | 0.05 to 0.1 µM

Row | SMILES | EC50
27 | CN1C(C(=O)Nc2ccc(F)c(Cl)c2)CC(C(=O)NCc2nn(-c3ccccc3F)c3ccccc23)NS1(=O)=O (stereo not drawn) [Compound 1086] | < 0.05 µM
28 | CN1C(C(=O)Nc2ccc(F)c(Cl)c2)CC(C(=O)NCc2cnc(-c3ccccc3)s2)NS1(=O)=O (single isomer, unassigned) [Compound 691-ISOMER-A, N3-(3-chloro-4-fluoro-phenyl)-2-methyl-1,1-dioxo-N5-[(2-phenylthiazol-5-yl)methyl]-1,2,6-thiadiazinane-3,5-dicarboxamide] | 0.1 to 10 µM
29 | CN1C(C(=O)Nc2ccc(F)c(Cl)c2)CC(C(=O)NC2CCN(c3ccnc(Br)c3)CC2)NS1(=O)=O (stereo not drawn) [Compound 1036] | < 0.05 µM
30 | CN1C(C(=O)Nc2ccc(F)c(Cl)c2)C[C@@H](C(=O)N[C@H](c2ccccc2)c2cnc(-c3ccccc3Cl)s2)NS1(=O)=O (single isomer, unassigned) [1068-ISOMER-C] | < 0.05 µM
31 | COc1ccc(-c2ncc(CNC(=O)C3CC(C(=O)Nc4ccc(F)c(Cl)c4)N(C)S(=O)(=O)N3)s2)c(Cl)c1 (stereo not drawn) [Compound 988] | < 0.05 µM
32 | CN1C(C(=O)Nc2ccc(F)c(Cl)c2)CC(C(=O)NC2CCN(C(=O)OC(C)(C)C)C2)NS1(=O)=O (stereo not drawn) [Compound 1081] | 0.1 to 10 µM
33 | Cc1cc(CNC(=O)C2CC(C(=O)Nc3ccc(F)c(Cl)c3)N(C)S(=O)(=O)N2)on1 (stereo not drawn) [Compound 489] | 0.05 to 0.1 µM
34 | CN1C(C(=O)Nc2ccc(F)c(Cl)c2)CC(C(=O)NCc2cnc(-c3ccc(O)cc3)s2)NS1(=O)=O (stereo not drawn) [Compound 924] | < 0.05 µM
35 | CN1C(C(=O)Nc2ccc(F)c(Cl)c2)CC(C(=O)NC2CCN(c3ccnc(-c4cn(C)cn4)c3)CC2)NS1(=O)=O (stereo not drawn) [Compound 1052] | < 0.05 µM
36 | CN1C(C(=O)Nc2ccc(F)c(Cl)c2)CC(C(=O)NCc2cnc(C3CCC(C)(C)C3)s2)NS1(=O)=O (stereo not drawn) [Compound 1159] | 0.1 to 10 µM
37 | Cc1nc(-c2ccccc2Cl)sc1[C@H](NC(=O)C1CC(C(=O)Nc2ccc(F)c(Cl)c2)N(C)S(=O)(=O)N1)c1ccccc1 (single isomer, unassigned) [1100-ISOMER-A] | < 0.05 µM
38 | CN1C(C(=O)Nc2ccc(F)c(Cl)c2)CC(C(=O)N[C@@H](c2ccccc2)c2cnc(Cl)s2)NS1(=O)=O (single isomer, unassigned) [1066-ISOMER-D] | 0.1 to 10 µM
39 | CN1C(C(=O)Nc2ccc(F)c(Cl)c2)C[C@@H](C(=O)N[C@H](c2ccccc2)c2cnc(-c3ccccc3)s2)NS1(=O)=O (single isomer, unassigned) [1067-ISOMER-C] | < 0.05 µM
40 | CCc1nc(CNC(=O)C2CC(C(=O)Nc3ccc(F)c(Cl)c3)N(C)S(=O)(=O)N2)cs1 (stereo not drawn) [Compound 742] | 0.05 to 0.1 µM
41 | CN1C(C(=O)Nc2ccc(F)c(Cl)c2)CC(C(=O)NC2CCN(c3ncccn3)CC2)NS1(=O)=O (stereo not drawn) [Compound 855] | < 0.05 µM
42 | Cc1nc(-c2ccccc2F)sc1C(NC(=O)C1CC(C(=O)Nc2ccc(F)c(Cl)c2)N(C)S(=O)(=O)N1)c1ccccc1 (stereo not drawn) [Compound 1101] | 0.05 to 0.1 µM
